In general, IC50 refers to the point on the concentration scale where inhibition reaches its midpoint.

The assay addresses T1, full-length human PKCι (Homo sapiens, UniProt P41743).
T1 construct: Recombinant, full-length human PKCι expressed in Sf21 insect cells is also commercially available; purchased EMD Millipore; host or cells: Sf21 insect cells (baculovirus)
T1 sequence (P41743 1-596): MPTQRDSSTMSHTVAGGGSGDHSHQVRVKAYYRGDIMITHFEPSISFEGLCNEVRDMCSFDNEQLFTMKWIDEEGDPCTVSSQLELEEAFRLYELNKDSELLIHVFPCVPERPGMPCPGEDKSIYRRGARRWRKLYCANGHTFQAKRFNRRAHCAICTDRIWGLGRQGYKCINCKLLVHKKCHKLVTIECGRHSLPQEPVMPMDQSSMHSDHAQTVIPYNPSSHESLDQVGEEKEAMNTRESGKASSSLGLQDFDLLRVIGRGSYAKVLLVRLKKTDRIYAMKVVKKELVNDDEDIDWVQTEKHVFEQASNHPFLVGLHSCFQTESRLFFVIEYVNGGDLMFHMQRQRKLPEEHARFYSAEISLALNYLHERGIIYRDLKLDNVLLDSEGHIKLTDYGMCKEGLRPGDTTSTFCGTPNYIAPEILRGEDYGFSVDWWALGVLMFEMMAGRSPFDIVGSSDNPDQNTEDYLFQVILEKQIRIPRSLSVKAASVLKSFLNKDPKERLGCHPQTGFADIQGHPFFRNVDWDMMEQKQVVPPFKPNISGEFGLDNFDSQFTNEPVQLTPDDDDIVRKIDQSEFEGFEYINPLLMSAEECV
Briefly: PKCι IC50 IMAP fluorescence polarisation assay, full-length enzyme, 150 μM ATP. It is filed as biochemical. Conditions: read-out: IC50 in IMAP assay against full length PKCi at 150 μM ATP. The text has this:
Assays are based on the ability of PKCι to phosphorylate a commercially available peptide substrate in vitro. The peptide substrate is FAM-PKCε pseudopeptide derived peptide, and comprises the amino acid sequence 5FAM-ERMRPRKRQGSVRRRV-NH2. Recombinant, full-length human PKCι expressed in Sf21 insect cells is also commercially available. Recombinant, kinase-domain human PKCι is expressed and purified in-house.
The procedure below explains how dose response curves for inhibitors of PKCι are obtained. The screen described is for a 384 well format but the assay can be adapted to 1536 or other formats as required.
Compounds to be tested are dissolved in 100% DMSO. Compounds are diluted as required to give a final concentration of 4% DMSO (v/v) in the assay. 1 μl is plated into 384 well black low-binding flat bottomed assay plates which are used immediately. Dilutions and additions of compound to assay plates are carried out using Matrix WellMate® and Matrix PlateMate® Plus liquid handling systems.
On the day of the screen PKCι/substrate working solution, and ATP working solution, are prepared in buffer containing 20 mM tris-HCl pH7.5, 10 mM MgCl2, 0.01% Triton X100, 250 μM EGTA and 1 mM DTT. The final concentration of PKCι used varies depending on the batch of protein but is typically 15 pM. The final concentration of peptide substrate in the assay is 100 nM. ATP is used at a final concentration of 150 μM or 25 μM in the assays containing full-length or kinase-domain PKCι respectively, which corresponds to five times or equal to the KM^APP for ATP for each enzyme, respectively. The final buffer concentration in the assay is 18 mM tris-HCl pH7.5, 9 mM MgCl2, 0.009% Triton X100, 225 μM EGTA and 0.9 mM DTT. Relevant controls are included, namely no compound and no enzyme. 5 μl PKCι/substrate working solution at 30 pM and 200 nM, respectively, is added to the wells, followed by 4 μl ATP working solution at 375 μM or 62.5 μM for full-length or kinase-domain PKCι respectively, using a 16 channel Matrix pipette. The reaction is allowed to incubate for 60 minutes at room temperature, before the reaction is stopped and developed by the addition of 20 μl IMAP™ development reagent (Molecular Devices). IMAP development reagent consists of 0.25% (v/v) IMAP progressive binding reagent, 17% (v/v) IMAP progressive binding buffer A and 3% (v/v) IMAP progressive binding buffer B. The plates are then incubated for 2 hours at room temperature before being read using an appropriate plate reader, for example a Molecular Devices HT Analyst or a BMG Pherastar. Plates are read using a fluorescence polarisation protocol with excitation at 485 nm and emission at 530 nm, and dichroic mirror at 505 nm.
Percentage inhibition values are calculated from fluorescence polarisation values, using the no compound and no enzyme control values as 0% and 100% inhibition, respectively. IC50 determination is performed with ExcelFit software (IDBS) using curve fit 205. Z′ factors are determined for each plate tested and are all above 0.5.
Alternatively, compounds were tested for their ability to inhibit the kinase activity of recombinant human baculovirus-expressed PKCiota using the immobilized metal-ion affinity particle (IMAP®) fluorescence polarization detection system (Molecular Devices, Sunnyvale, Calif.). PKCiota/IMAP® substrate mixture (2×) was prepared in 1×IMAP assay buffer (Molecular Devices) containing 1 mM DTT so that the final assay concentrations were 15 pM PKCiota (EMD Millipore, Billerica, Mass.) and 100 nM 5-fluorescein-amidite (FAM)-PKC ? -pseudosubstrate (5-FAM-ERMRPRKRQGSVRRRV-NH2) (Molecular Devices). The 2× working solution was added at 5 μL/well into a 384-well black, non-binding, flat bottom assay plate (Corning, Corning, N.Y.). […]
(In general: In fluorescence polarisation assays a small probe gives low polarisation when free and higher when bound to something large.)
Consider `CC1(C)CNCCC1Nc1nc(-c2ccnc(Nc3ncc(F)cc3F)c2)nc2cncc(C3CCC3)c12` (stereo not shown) [Example 68, {5-Cyclobutyl-2-[2-(3,5-difluoro-pyridin-2-ylamino)-pyridin-4-yl]-pyrido[3,4-d]pyrimidin-4-yl}-(3,3-dimethyl-piperidin-4-yl)-amine], for which the IC50 was less than 0.1 µM. Next, `c1ccc2c(c1)[nH]c1nccc(-c3nc(NCC4COCCN4)c4c(C5CCC5)cncc4n3)c12` (stereo not shown) [Example 251, [5-Cyclobutyl-2-(9H-pyrido[2,3-b]indol-4-yl)-pyrido[3,4-d]pyrimidin-4-yl]-morpholin-3-ylmethyl-amine]: 1 to 10 µM.

For `Cc1cn2c(n1)[nH]c1nccc(-c3nc(N4CCNCC4)c4c(C5CCC5)cncc4n3)c12` [Example 3, 4-(5-Cyclobutyl-4-piperazin-1-yl-pyrido[3,4-d]pyrimidin-2-yl)-2-methyl-8H-1,3a,7,8-tetraaza-cyclopent[a]indene], the IC50 lay in the range of 0.1 to 1 µM. On to `CC1(C)CNCC[C@@H]1Nc1nc(-c2ccnc3[nH]c4ccccc4c23)nc2cncc(C(F)(F)F)c12` [Example 217, ((S)-3,3-Dimethyl-piperidin-4-yl)-[2-(9H-pyrido[2,3-b]indol-4-yl)-5-trifluoromethyl-pyrido[3,4-d]pyrimidin-4-yl]-amine], for which the IC50 is less than 0.1 µM.

On to `CC1(C)CNCC[C@@H]1Nc1nc(-c2cccc(Nc3cnccn3)c2)nc2cncc(C3CCC3)c12` [Example 324, 5-Cyclobutyl-N-[(4S)-3,3-dimethyl-4-piperidyl]-2-[3-(pyrazin-2-ylamino)phenyl]pyrido[3,4-d]pyrimidin-4-amine], for which the IC50 lay within 1 to 10 µM. Under `FC(F)(F)c1cncc2nc(-c3ccnc4[nH]c5ccccc5c34)nc(N3CCNCC3)c12` [Example 215, 4-(4-Piperazin-1-yl-5-trifluoromethyl-pyrido[3,4-d]pyrimidin-2-yl)-9H-pyrido[2,3-b]indole] stands 0.1 to 1 µM; under `c1ccc2c(c1)[nH]c1nccc(-c3nc(N4CCC5(CCCNC5)C4)c4c(C5CCC5)cncc4n3)c12` (stereo not shown) [Example 250, 4-[5-Cyclobutyl-4-(2,7-diaza-spiro[4.5]dec-2-yl)-pyrido[3,4-d]pyrimidin-2-yl]-9H-pyrido[2,3-b]indole], less than 0.1 µM.

Take `C[C@@H]1CNCC[C@@H]1Nc1nc(-c2ccnc(Nc3nc(F)cc(F)c3F)c2)nc2cncc(C3CCC3)c12` (racemic) [Example 295, {5-Cyclobutyl-2-[2-(3,4,6-trifluoro-pyridin-2-ylamino)-pyridin-4-yl]-pyrido[3,4-d]pyrimidin-4-yl}-(rac-(3R,4S)-3-methyl-piperidin-4-yl)-amine]: the IC50 is less than 0.1 µM. Next, `CC1(C)CNCC[C@@H]1Nc1nc(-c2ccnc(Nc3ncccc3F)c2)nc2cncc(C3CC3)c12` [Example 390, {5-Cyclopropyl-2-[2-(3-fluoro-pyridin-2-ylamino)-pyridin-4-yl]-pyrido[3,4-d]pyrimidin-4-yl}-((S)-3,3-dimethyl-piperidin-4-yl)-amine]: less than 0.1 µM; `FC(F)(F)c1cc2c(-c3nc(N4CCC[C@H]5CNC[C@H]54)c4c(C5CC5)cncc4n3)ccnc2[nH]1` (racemic) [Example 8, (±)-5-Cyclopropyl-4-(4,7-cis)-octahydro-pyrrolo[3,4-b]pvridin-1-yl-2-(2-trifluoromethyl-1H-pyrrolo[2,3-b]pyridin-4-yl)-pyrido[3,4-d]pyrimidine]: less than 0.1 µM; `CC1(C)CNCCC1Nc1nc(-c2ccnc(Nc3cccnc3F)c2)nc2cncc(C3CCC3)c12` (stereo not shown) [Example 92, {5-Cyclobutyl-2-[2-(2-fluoro-pyridin-3-ylamino)-pyridin-4-yl]-pyrido[3,4-d]pyrimidin-4-yl}-(3,3-dimethyl-piperidin-4-yl)-amine]: less than 0.1 µM. Turning to `CC1(C)CC(Nc2nc(-c3ccnc(Nc4nc(F)ccc4F)c3)nc3cncc(C4CCC4)c23)CCN1` (stereo not shown) [Example 138, {5-Cyclobutyl-2-[2-(3,6-difluoro-pyridin-2-ylamino)-pyridin-4-yl]-pyrido[3,4-d]pyrimidin-4-yl}-(2,2-dimethyl-piperidin-4-yl)-amine], the IC50 was less than 0.1 µM. Turning to `CC1(C)CNCC[C@@H]1Nc1nc(-c2ccnc3[nH]c(-c4cc(F)ccc4F)cc23)nc2cncc(C3CC3)c12` [Example 361, {5-Cyclopropyl-2-[2-(2,5-difluoro-phenyl)-1H-pyrrolo[2,3-b]pyridin-4-yl]-pyrido[3,4-d]pyrimidin-4-yl}-((S)-3,3-dimethyl-piperidin-4-yl)-amine], the IC50 was less than 0.1 µM. Under `CN(c1nc(-c2ccnc3[nH]c4ccccc4c23)nc2cncc(C3CC3)c12)[C@@H]1CCNC[C@@]1(C)O` (racemic) [Example 114, (±)-(3,4-trans)-4-{[5-Cyclopropyl-2-(9H-pyrido[2,3-b]indol-4-yl)-pyrido[3,4-d]pyrimidin-4-yl]-methyl-amino}-3-methyl-piperidin-3-ol] stands less than 0.1 µM; under `CC1(C)CNCC[C@@H]1Nc1nc(-c2ccnc(Nc3ncc(Cl)cc3F)c2)nc2cncc(C3CC3)c12` [Example 319, {2-[2-(5-Chloro-3-fluoro-pyridin-2-ylamino)-pyridin-4-yl]-5-cyclopropyl-pyrido[3,4-d]pyrimidin-4-yl}-((S)-3,3-dimethyl-piperidin-4-yl)-amine], less than 0.1 µM. Under `CC1(C)CNCC[C@@H]1Nc1nc(-c2ccnc3[nH]c(-c4cccnc4)cc23)nc2cncc(C3CC3)c12` [Example 395, [5-Cyclopropyl-2-(2-pyridin-3-yl-1H-pyrrolo[2,3-b]pyridin-4-yl)-pyrido[3,4-d]pyrimidin-4-yl]-((S)-3,3-dimethyl-piperidin-4-yl)-amine] stands less than 0.1 µM. Under `c1ccc2c(c1)[nH]c1nccc(-c3nc(N[C@@H]4CCCNCC4)c4c(C5CCC5)cncc4n3)c12` [Example 141, (R)-Azepan-4-yl-[5-cyclobutyl-2-(9H-pyrido[2,3-b]indol-4-yl)-pyrido[3,4-d]pyrimidin-4-yl]-amine] stands less than 0.1 µM; under `c1ccc(-n2cnc(Nc3cc(-c4nc(N5CCC6NCCCC65)c5c(C6CC6)cncc5n4)ccn3)n2)cc1` (stereo not shown) [Example 245, {4-[5-Cyclopropyl-4-(octahydro-pyrrolo[3,2-b]pyridin-1-yl)-pyrido[3,4-d]pyrimidin-2-yl]-pyridin-2-yl}-(1-phenyl-1H-1,2,4-triazol-3-yl)-amine], less than 0.1 µM.

Consider `c1ccc(Nc2cc(-c3nc(N4CCC5NCCCC54)c4c(C5CCC5)cncc4n3)ccn2)cc1` (stereo not shown) [Example 125, {4-[5-Cyclobutyl-4-(octahydro-pyrrolo[3,2-b]pyridin-1-yl)-pyrido[3,4-d]pyrimidin-2-yl]-pyridin-2-yl}-phenyl-amine], for which the IC50 is less than 0.1 µM.
